What follows are cell lines tested with CC1=CC(=CC=C1)NC2=NC(=CS2)C3=CC=NC=C3 + Cc1cc(Nc2cc(N3CCN(C)CC3)nc(Sc3ccc(NC(=O)C4CC4)cc3)n2)n[nH]1 [Tozasertib] (partner 0.1 µM) (assay: relative viability (nuclei count vs DMSO), 5 days (fraction); higher = more cells survive). Details: first compound 8 µM.
How it was run: (§1)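 Five library-drug doses in √10 steps were combined with a fixed anchor-drug dose, or a single drug was given alone, by pin tool to lung cancer cell lines in 1536-well plates the day after seeding. Nuclei were stained and counted after 5 days. Relative viability is the nuclei count in treated wells over that in vehicle wells, taken as the median of duplicate plates.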

Cell Line	relative viability
PC-3 [JPC-3]	0.61

These cell lines were tested with CC1=CC(=CC=C1)NC2=NC(=CS2)C3=CC=NC=C3 + NC(=O)Nc1cc(-c2cccc(F)c2)sc1C(=O)N[C@H]1CCCNC1 [AZD7762] (partner 0.2 µM) in the same assay as above. Details: first compound 0.08 µM.
How it was run: as §1

Cell Line	relative viability
LOU-NH91	0.615
NCI-H3122	0.946
HOP-62	0.629
LXF-289	1.04
BEN	0.641
HARA	0.306
HCC-78	0.674
NCI-H441	1.1
LCLC-97TM1	0.338
A-427	0.646
NCI-H460	0.555
NCI-H727	0.669
NCI-H1755	0.491
NCI-H2405	0.675
NCI-H1395	0.401
201T	0.811

Cell Line	relative viability
NCI-H1975	0.579
HCC-827	0.352
NCI-H2347	0.613
NCI-H1355	0.657
NCI-H650	0.766
CAL-12T	0.527
NCI-H1666	0.766
EPLC-272H	0.201
NCI-H23	0.283
NCI-H1915	0.755
NCI-H1437	1.07
NCI-H322M	0.46
NCI-H2085	0.904
HCC-15	1.11
NCI-H1944	0.401
PC-3 [JPC-3]	0.711

Same assay, conditions: first compound 0.253 µM

Cell Line	relative viability
LOU-NH91	0.631
NCI-H358	0.594
NCI-H3122	1.01
HOP-62	0.598
LXF-289	1.12
BEN	0.614
HARA	0.466
HCC-78	0.409
NCI-H441	1.01
LCLC-97TM1	0.292
A-427	0.795
NCI-H460	0.529
NCI-H1755	0.418
NCI-H2405	0.716
201T	0.79
NCI-H1975	0.532
HCC-827	0.418
NCI-H2347	0.731
NCI-H1355	0.654
NCI-H650	0.896
CAL-12T	0.63
NCI-H1666	0.715
EPLC-272H	0.153
NCI-H23	0.276
NCI-H1915	0.665
NCI-H1437	1.11
NCI-H322M	0.549
NCI-H2085	1.01
HCC-15	1.19
NCI-H1944	0.552

Same assay, conditions: first compound 0.8 µM

Cell Line	relative viability
LOU-NH91	0.714
NCI-H358	0.532
NCI-H3122	1.04
HOP-62	0.619
LXF-289	1.04
BEN	0.662
HARA	0.317
HCC-78	0.613
NCI-H441	1.1
LCLC-97TM1	0.379
A-427	0.815
NCI-H460	0.625
NCI-H727	0.745
NCI-H1755	0.46
NCI-H2405	0.667
NCI-H1395	0.393
201T	0.777

Cell Line	relative viability
NCI-H1975	0.591
HCC-827	0.53
NCI-H2347	0.699
NCI-H1355	0.513
NCI-H650	1.05
CAL-12T	0.604
NCI-H1666	0.607
EPLC-272H	0.445
NCI-H23	0.213
NCI-H1915	0.689
NCI-H1437	1.1
NCI-H322M	0.551
NCI-H2085	0.847
HCC-15	1.03
NCI-H1944	0.706
PC-3 [JPC-3]	1.11

Same assay, conditions: first compound 2.53 µM

Cell Line	relative viability
LOU-NH91	0.761
NCI-H358	0.521
NCI-H3122	1.04
HOP-62	0.861
LXF-289	1.2
BEN	0.566
HARA	0.356
HCC-78	0.449
NCI-H441	1.35
LCLC-97TM1	0.246
A-427	0.81
NCI-H460	0.622
NCI-H1755	0.486
NCI-H1395	0.352
201T	0.865
NCI-H1975	0.462
HCC-827	0.216
NCI-H2347	0.778
NCI-H1355	0.653
NCI-H650	0.926
CAL-12T	0.516
NCI-H1666	0.548
NCI-H23	0.244
NCI-H1915	0.686
NCI-H1437	1.12
NCI-H322M	0.553
NCI-H2085	0.993
HCC-15	1.03
NCI-H1944	0.527
PC-3 [JPC-3]	0.712

Same assay, conditions: first compound 8 µM

Cell Line	relative viability
LOU-NH91	0.468
NCI-H358	0.542
NCI-H3122	0.96
HOP-62	0.578
LXF-289	0.964
BEN	0.659
HARA	0.273
HCC-78	0.658
NCI-H441	0.997
LCLC-97TM1	0.376
A-427	0.646
NCI-H460	0.497
NCI-H727	0.507
NCI-H1755	0.376
NCI-H2405	0.664
NCI-H1395	0.336
201T	0.618

Cell Line	relative viability
NCI-H1975	0.439
HCC-827	0.28
NCI-H2347	0.72
NCI-H1355	0.558
NCI-H650	0.999
CAL-12T	0.561
NCI-H1666	0.68
EPLC-272H	0.215
NCI-H23	0.223
NCI-H1915	0.667
NCI-H1437	1.11
NCI-H322M	0.455
NCI-H2085	0.575
HCC-15	1.02
NCI-H1944	0.47
PC-3 [JPC-3]	0.663

The cell lines below were run with CC1=CC(=CC=C1)NC2=NC(=CS2)C3=CC=NC=C3 + COc1cc2c(Oc3ccc(NC(=O)C4(C(=O)Nc5ccc(F)cc5)CC4)cc3F)ccnc2cc1OCCCN1CCOCC1 [Foretinib] (partner 0.25 µM) in the same assay as above. Details: first compound 0.08 µM.
How it was run: as §1

Cell Line	relative viability
LOU-NH91	0.794
NCI-H358	0.699
NCI-H3122	0.885
HOP-62	1.08
LXF-289	0.926
BEN	0.615
HARA	0.522
NCI-H441	0.754
LCLC-97TM1	0.966
A-427	1.02
NCI-H460	0.915
NCI-H1755	0.862
NCI-H2405	0.914
NCI-H1395	0.859
201T	0.835
NCI-H1975	0.687

Cell Line	relative viability
HCC-827	1.02
NCI-H2347	0.926
NCI-H1355	0.882
NCI-H650	0.955
CAL-12T	1.2
NCI-H1666	0.929
EPLC-272H	0.657
NCI-H23	1.03
NCI-H1915	1.05
NCI-H1437	1.16
NCI-H322M	0.788
NCI-H2085	0.903
HCC-15	0.942
NCI-H1944	0.863
PC-3 [JPC-3]	0.975

Same assay, conditions: first compound 0.253 µM

Cell Line	relative viability
LOU-NH91	0.853
NCI-H358	0.797
NCI-H3122	0.967
HOP-62	1.07
LXF-289	1.03
BEN	0.435
HARA	0.952
HCC-78	0.484
NCI-H441	0.791
LCLC-97TM1	0.906
A-427	1.08
NCI-H460	0.894
NCI-H727	0.837
NCI-H1755	0.835
NCI-H2405	0.942
NCI-H1395	0.918

Cell Line	relative viability
NCI-H1975	0.704
HCC-827	1
NCI-H2347	0.721
NCI-H1355	0.749
NCI-H650	0.98
CAL-12T	1.08
NCI-H1666	0.905
EPLC-272H	0.711
NCI-H23	0.963
NCI-H1915	1.1
NCI-H1437	1.21
NCI-H322M	0.924
NCI-H2085	0.994
HCC-15	1.01
NCI-H1944	0.85
PC-3 [JPC-3]	0.928

Same assay, conditions: first compound 0.8 µM

Cell Line	relative viability
LOU-NH91	0.807
NCI-H358	0.671
NCI-H3122	0.984
HOP-62	1.12
LXF-289	0.994
BEN	0.624
HARA	0.848
HCC-78	0.558
NCI-H441	1.12
LCLC-97TM1	0.841
A-427	1.14
NCI-H460	0.948
NCI-H727	0.785
NCI-H1755	0.823
NCI-H2405	0.786
NCI-H1395	0.933
201T	0.939

Cell Line	relative viability
NCI-H1975	0.837
HCC-827	0.997
NCI-H2347	0.855
NCI-H1355	0.663
NCI-H650	1.08
CAL-12T	1.04
NCI-H1666	0.81
EPLC-272H	0.623
NCI-H23	1.03
NCI-H1915	1.06
NCI-H1437	1.11
NCI-H322M	0.89
NCI-H2085	0.989
HCC-15	0.928
NCI-H1944	0.862
PC-3 [JPC-3]	0.911

Same assay, conditions: first compound 2.53 µM

Cell Line	relative viability
LOU-NH91	0.896
NCI-H358	0.934
NCI-H3122	0.971
HOP-62	1.15
LXF-289	0.938
BEN	0.392
HARA	0.769
HCC-78	0.537
NCI-H441	0.857
LCLC-97TM1	1.02
A-427	0.924
NCI-H460	0.924
NCI-H727	0.79
NCI-H1755	0.758
NCI-H2405	0.99
NCI-H1395	0.958
201T	0.759

Cell Line	relative viability
NCI-H1975	0.617
HCC-827	1.02
NCI-H2347	0.994
NCI-H1355	0.685
NCI-H650	1.02
CAL-12T	1.09
NCI-H1666	0.767
EPLC-272H	0.597
NCI-H23	0.873
NCI-H1915	1.07
NCI-H1437	1.27
NCI-H322M	1.01
NCI-H2085	0.95
HCC-15	1.07
NCI-H1944	0.75
PC-3 [JPC-3]	0.918

Same assay, conditions: first compound 8 µM

Cell Line	relative viability
LOU-NH91	0.903
NCI-H358	0.566
NCI-H3122	1.01
HOP-62	1.04
LXF-289	0.823
BEN	0.629
HARA	0.821
HCC-78	0.568
NCI-H441	0.842
LCLC-97TM1	0.929
A-427	0.707
NCI-H460	0.82
NCI-H727	0.71
NCI-H1755	0.664
NCI-H2405	1
NCI-H1395	1
201T	0.871

Cell Line	relative viability
NCI-H1975	0.633
HCC-827	0.958
NCI-H2347	0.842
NCI-H1355	0.71
NCI-H650	1.02
CAL-12T	0.899
NCI-H1666	0.642
EPLC-272H	0.723
NCI-H23	0.895
NCI-H1915	0.977
NCI-H1437	1.12
NCI-H322M	0.915
NCI-H2085	0.759
HCC-15	0.922
NCI-H1944	0.777
PC-3 [JPC-3]	0.824

From the supplement of paper PMC10307832
